Article PMC6105804, “In Vitro and In Vivo Evaluation of APX001A/APX001 and Other Gwt1 Inhibitors against Cryptococcus” (Antimicrobial Agents and Chemotherapy, 2018)

Key:
C. neoformans strain H99 [1] = experiment: Murine cryptococcal meningitis model with ABT pretreatment (preliminary experiment); assay type: in vivo, Cryptococcus neoformans; conditions: 7 days
Protocol: In a preliminary experiment, the efficacies of APX001, APX2096, and APX2097 were evaluated in the disseminated model of CM (n = 5 mice/cohort). ABT at 100 mg/kg was administered orally to male CD-1 mice 2 h prior to APX compound administration. Mice were injected with 6.9 × 10^4 CFU of C. neoformans strain H99 per mouse via the lateral tail vein at time zero. Treatment with each prodrug was initiated at about 1 h postinfection by i.p. administration and continued daily for 7 days, with 100-mg/kg ABT being administered orally 2 h prior to each APX compound dose.
(§1) ABT at 100 mg/kg was administered orally to male CD-1 mice at 2 h prior to each APX compound dose. Mice were injected with 6.9 × 10^4 CFU of C. neoformans strain H99 per mouse via the lateral tail vein at time zero. Treatment with the APX compound was initiated at about 1 h postinfection by i.p. administration and continued for 7 days, with 100-mg/kg ABT being administered orally 2 h prior to each APX compound dose. […] Fungal burden data were log10 transformed and evaluated using Kruskal-Wallis tests with Dunn's multiple-comparison test for post hoc analysis (Prism software, v5; GraphPad Software, Inc., San Diego, CA). A P value of ≤0.05 was considered statistically significant (*, P ≤ 0.05; **, P ≤ 0.01). The 95% confidence interval (CI) is presented.
(§2) C. neoformans strain H99 was grown in yeast extract-peptone-dextrose broth at 30°C on a shaker (220 rpm) for 24 h, centrifuged (1,980 relative centrifugal force), and washed twice in phosphate-buffered saline (PBS), resuspended in PBS, and quantified by hemacytometric count. Male CD-1 mice were infected with ∼5 × 10^4 CFU per mouse via lateral tail vein injection of 100 μl. Mice were weighed, and treatment was begun within 1 h after infection. Treatments were administered daily for 7 days. Mice were weighed daily and observed for acute and chronic adverse symptoms. Mice were sacrificed on day 8, and the brain and left lung were homogenized and cultured for quantitative determination of the tissue burden (number of CFU per gram of tissue). Tissues were homogenized for 25 s in 1 ml phosphate-buffered saline using two 6.5-mm steel beads and a Mini-Beadbeater 16 apparatus (Biospec Products, Inc., Bartlesville, OK) and serially diluted in 10-fold steps. Aliquots (100 μl) of homogenate were plated and incubated for 3 to 7 days at 37°C. Fungal burden data were log10 transformed and evaluated using Kruskal-Wallis tests with Dunn's multiple-comparison test for post hoc analysis (Prism software, v5; GraphPad Software, Inc., San Diego, CA). A P value of ≤0.05 was considered statistically significant.

C. neoformans strain H99 [2] = experiment: Murine cryptococcal meningitis model with ABT, dose-response study; assay type: in vivo, Cryptococcus neoformans
Protocol: A dose-response study was performed with APX2096 and APX2097 to confirm the observed activity. In this study, QD doses of 7.5, 20, and 60 mg/kg were evaluated in conjunction with the administration of ABT. A 60-mg/kg dose QD without ABT was also evaluated as a control.
FIG 3 Dose-response of APX2096 and APX2097 in a murine model of cryptococcal meningitis in conjunction with ABT administration. ABT at 100 mg/kg was administered orally to male CD-1 mice at 2 h prior to each APX compound dose. Mice were injected with 4.8 × 10^4 CFU C. neoformans strain H99 per mouse via the lateral tail vein at time zero. Treatment with the APX compounds was initiated at 1 h postinfection by i.p. administration and continued for 7 days, with 100-mg/kg ABT being administered orally 2 h prior to each APX compound dose. The correction factors for prodrug potencies versus the potencies of the active moieties were similar enough such that the same factor (1.3) was used for all APX compounds. Fungal burden data were log10 transformed and evaluated using Kruskal-Wallis tests with Dunn's multiple-comparison test for post hoc analysis (Prism software, v5; GraphPad Software, Inc., San Diego, CA). […] A P value of ≤0.05 was considered statistically significant (*, P ≤ 0.05; **, P ≤ 0.01; ***, P ≤ 0.001). The 95% confidence interval (CI) is presented.
as §2

C. neoformans strain H99 [3] = experiment: Delayed-treatment model of cryptococcal meningitis; assay type: in vivo, Cryptococcus neoformans; conditions: treatment from 24 h after infection, QD 7 days; APX2096 60 mg/kg i.p. + ABT, AMB 3 mg/kg i.p.
Protocol: As in the previous mouse model, 100-mg/kg ABT (p.o.) was administered 2 h prior to each APX2096 dose (n = 5 mice/cohort). Infection was initiated on day 1, and treatment was initiated 24 h later (day 2) rather than 1 h later. Treatments were administered for 7 days (the final dose was administered on day 8), and mice were sacrificed on day 9 for CFU enumeration.
Male CD-1 mice were infected with 5.4 × 10^4 CFU per mouse via lateral tail vein injection. […] A dose of 100-mg/kg ABT was administered orally 2 h prior to each APX2096 dose. Mice were sacrificed 24 h after the last dose, and the brain and left lung were homogenized and cultured for quantitative determination of the tissue burden (number of CFU per gram of tissue). Fungal burden data were log10 transformed and evaluated using Kruskal-Wallis tests with Dunn's multiple-comparison test for post hoc analysis (Prism software, v5; GraphPad Software, Inc., San Diego, CA). A P value of ≤0.05 was considered statistically significant (*, P ≤ 0.05; **, P ≤ 0.01). The 95% confidence interval (CI) is presented.
Fungal burden data were log10 transformed and evaluated using Kruskal-Wallis tests with Dunn's multiple-comparison test for post hoc analysis (Prism software, v5; GraphPad Software, Inc., San Diego, CA). A P value of ≤0.05 was considered statistically significant.

[4] = Acute toxicity and survival observed in the CM model with ABT; assay type: in vivo, mouse; conditions: i.p. dosing + ABT; dose then reduced to 60 mg/kg for surviving mice
Protocol: as §1, §2

[5] = 34 mg/kg QD i.p. + ABT 100 mg/kg p.o.

SMILES: Nc1c(-c2cc(Cc3ccc(Oc4cccc(F)n4)cc3)no2)ccc[n+]1COP(=O)([O-])O [APX2096]
- reduction in brain fungal burden (C. neoformans strain H99 [1]; [5]): 7.05 log10 CFU/g
- reduction in lung fungal burden (C. neoformans strain H99 [1]; [5]): approximately 4.67 log10 CFU/g
- reduction in brain fungal burden (C. neoformans strain H99 [1]; 60 mg/kg i.p. (dose reduced after day 1) + ABT): 7.13 log10 CFU/g
- reduction in lung fungal burden (C. neoformans strain H99 [1]; 60 mg/kg i.p. (dose reduced after day 1) + ABT, burden below the limit of detection): approximately 4.67 log10 CFU/g
- reduction in brain fungal burden (C. neoformans strain H99 [2]; 20 mg/kg QD i.p. + ABT): 2.95 log10 CFU/g
- reduction in lung fungal burden (C. neoformans strain H99 [2]; 20 mg/kg QD i.p. + ABT): 3.69 log10 CFU/g
- reduction in lung burden, without ABT (C. neoformans strain H99 [2]; 60 mg/kg/day i.p. without ABT, nonsignificant): 0.74 log10 CFU/g
- reduction in brain tissue fungal burden vs untreated control (C. neoformans strain H99 [3]): 6.84 log10 CFU/g
- reduction of the lung tissue fungal burden vs untreated control (C. neoformans strain H99 [3]): 4.59 log10 CFU/g
- Acute toxicity observed (day of treatment) [4]: day 1
